The results in this text go back to US9149480B2, “Use of meloxicam for the long-term treatment of musculoskeletal disorders in cats” (Boehringer Ingeleheim Vetmedica GmbH, priority 2010, dated 2015).

The subject of the data set is cats. As to the kind of experiment: Retrospective study of long-term meloxicam treatment in aged cats with osteoarthritis: progression of renal disease versus matched untreated controls. It counts as in vivo, cat. To be noted: for progression of renal disease: maintenance dose of 0.02 mg/kg; for progression of renal parameters: median maintenance dose 0.02 mg/kg daily; for loss of urine concentrating ability / weight loss: time adjusted AUC change from baseline, Wilcoxon rank-sum-test. The text has this: The medical records of a feline-only practice were searched for cats with OA being treated with meloxicam during a 4 year period. A diagnosis of OA was based upon any two of the following: owner noted mobility changes and/or physical examination findings or radiographic changes. Cats included were older than 7 years and treated with meloxicam for a duration of more than 6 months. Complete medical records were available for review. Biochemistry, urinalysis and body weight were regularly monitored. The progression of renal disease in the aged non-renal and renal group treated was compared to age matched and IRIS matched untreated controls from the same clinic.
The database of a feline-only practice in suburban Melbourne was searched for cats which had been treated for chronic musculoskeletal disorders with meloxicam (Metacam oral suspension, Boehringer Ingelheim) during a 4 year period. The diagnosis of osteoarthritis or spondylosis deformans had been made based upon any two of the following: owner noted mobility changes, physical examination findings or radiographic changes. The inclusion criteria included cats greater than 7 years old which had been treated continuously with meloxicam for a duration of more than 6 months and which had complete medical records available for review. In addition, cats were only included if serum biochemistry, urine analysis and body weight had been regularly monitored.
Young cats were excluded, as were cats with no pre-treatment renal parameter measurements. In addition cats were also excluded if the owner could not be contacted to check that the cats were still receiving daily treatment with meloxicam.
Age, breed, sex, concomitant diseases and medications as well as date treatment commenced, treatment duration and daily dose of meloxicam were recorded.
The presence or absence of pre-treatment renal disease and staging of the renal disease was carried out using plasma creatinine and urine specific gravity according to the following recognised International Renal Interest Society criteria (IRIS staging 2006):
The treated cats were then subdivided into two groups: the renal treated group that belonged to IRIS stage 1-3 and were pre-treated, and the non-renal treated group that has no identifiable renal disease pre-treatment. Urine specific gravity, serum creatinine and bodyweight were used as indicators of renal disease progression. The progression of renal disease was then compared to age and IRIS matched untreated controls were then randomly identified from the database of the same clinic.
The median age of the renal and non-renal treated cats, median treatment duration and median maintenance dose was calculated.
The progression of renal disease in the non-renal treated group was compared to the age matched untreated controls. The progression of renal disease in the treated renal-diseased group was compared to age matched and IRIS matched untreated controls from the same clinic. Statistical analysis was carried out using a time adjusted area-under-the-curve (AUC) changes from baseline time 0 until the last recorded value (n).
The Wilcoxon rank-sum-test was used to compare the groups. With this nonparametric test the distribution of the adjusted AUC of two groups was compared regarding the location. Under the null hypothesis it is assumed that there is no location shift in the distributions of the two treatment groups. If the resulting p-value is lower than the two-sided significance level of 5% the null hypothesis is rejected.

Setting [1] is: non-renal group treated with meloxicam vs non-renal group not treated.
[2] abbreviates: renal group treated with meloxicam vs age and IRIS matched untreated renal group.

With `Cc1cnc(NC(=O)C2=C(O)c3ccccc3S(=O)(=O)N2C)s1` [meloxicam], the “progression of renal disease” value (aged cats with pre-existent stable IRIS stage 1-3 renal disease) is reported as “does not hasten progression of renal disease” and the “progression of renal disease” value (aged cats) is on record as “does not hasten progression of renal disease”. Further, the “median maintenance dose after dose titration to the lowest effective dose” value (daily, oral suspension, both the renal treated and non-renal treated groups) turned out to be 0.02 mg/kg. Also, the “progression of renal parameters” value reads like this: (non-renal group treated with meloxicam vs non-renal group not treated, median treatment duration 400 days) “no differences”; (renal group (IRIS stage 1-3) treated with meloxicam vs age and IRIS matched untreated renal group, median treatment duration 527 days) “no differences”. The “loss of urine concentrating ability” value runs as follows: under setting [1], “no statistically significant differences”; under setting [2], “no statistically significant differences”. Moreover, the weight loss entry under setting [1] was “no statistically significant differences” and the weight loss result under setting [2] was “no statistically significant differences”. For the same compound, the “mean serum creatinine concentration increase over time” value (renal group treated with meloxicam vs renal untreated group) is “increased statistically significantly less”.
